In patent US10550102B2, “Indane and indoline derivatives and the use thereof as soluble guanylate cyclase activators” (NOVARTIS AG, priority 2014, dated 2020):

Experiments:
[1] = target: soluble guanylate cyclase (human GUCYA3 and GUCYB3) overexpressed in CHO cells (Homo sapiens (Human), UniProt Q02153); assay: CHO cellular assay (cGMP production, Cisbio cGMP HTRF kit); format: cell-based; conditions: CHO GUCY clone 8E10, cGMP production, assay buffer with 1 mM IBMX and 20 uM ODQ, 1 h room temperature; minimum quantification limit 0.5 nM (listed 0.5 nM means ≤0.5 nM)
Chain of soluble guanylate cyclase (human GUCYA3 and GUCYB3) overexpressed in CHO cells (Homo sapiens (Human), UniProt Q02153) (Q02108 whole entry partner): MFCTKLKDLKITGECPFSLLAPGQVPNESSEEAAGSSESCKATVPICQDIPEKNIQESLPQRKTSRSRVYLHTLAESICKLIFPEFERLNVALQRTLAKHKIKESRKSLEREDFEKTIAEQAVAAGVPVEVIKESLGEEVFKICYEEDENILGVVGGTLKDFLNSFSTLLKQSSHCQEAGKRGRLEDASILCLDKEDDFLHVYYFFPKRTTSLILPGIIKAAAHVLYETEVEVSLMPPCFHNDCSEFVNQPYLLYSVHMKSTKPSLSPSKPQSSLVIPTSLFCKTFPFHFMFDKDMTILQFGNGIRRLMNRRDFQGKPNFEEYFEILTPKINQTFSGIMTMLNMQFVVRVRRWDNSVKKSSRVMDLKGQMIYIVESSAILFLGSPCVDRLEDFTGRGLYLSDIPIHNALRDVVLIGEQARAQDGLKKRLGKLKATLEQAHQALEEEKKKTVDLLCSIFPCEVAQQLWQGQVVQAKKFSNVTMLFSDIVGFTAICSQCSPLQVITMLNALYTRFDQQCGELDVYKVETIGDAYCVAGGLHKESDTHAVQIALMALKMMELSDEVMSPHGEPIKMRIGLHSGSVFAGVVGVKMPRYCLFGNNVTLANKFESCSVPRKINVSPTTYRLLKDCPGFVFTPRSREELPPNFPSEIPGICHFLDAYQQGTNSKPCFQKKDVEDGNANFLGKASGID
Chain of soluble guanylate cyclase (human GUCYA3 and GUCYB3) overexpressed in CHO cells (Homo sapiens (Human), UniProt Q02153) (Q02153 whole entry): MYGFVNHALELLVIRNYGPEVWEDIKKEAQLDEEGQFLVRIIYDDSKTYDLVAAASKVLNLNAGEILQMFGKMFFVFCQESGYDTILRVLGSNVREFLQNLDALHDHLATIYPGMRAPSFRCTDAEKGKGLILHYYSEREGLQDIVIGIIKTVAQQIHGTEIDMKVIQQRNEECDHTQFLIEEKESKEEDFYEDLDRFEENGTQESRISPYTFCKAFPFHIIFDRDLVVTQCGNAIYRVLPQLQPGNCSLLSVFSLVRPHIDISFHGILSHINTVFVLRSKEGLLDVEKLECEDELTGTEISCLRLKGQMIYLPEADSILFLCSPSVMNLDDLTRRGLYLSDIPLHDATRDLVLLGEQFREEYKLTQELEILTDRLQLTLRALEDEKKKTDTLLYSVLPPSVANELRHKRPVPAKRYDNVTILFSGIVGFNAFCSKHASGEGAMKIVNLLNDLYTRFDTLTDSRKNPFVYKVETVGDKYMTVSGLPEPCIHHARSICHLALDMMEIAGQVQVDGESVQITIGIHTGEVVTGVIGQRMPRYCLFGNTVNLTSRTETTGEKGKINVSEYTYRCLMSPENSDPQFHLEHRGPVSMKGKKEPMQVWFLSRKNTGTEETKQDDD
In short: (§1)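 Stable CHO-K1 clone 8E10 expressing human sGC (GUCYA3/GUCYB3), 3000 cells/well, exposed 1 h at room temperature to activators in HBSS, 0.1% BSA, 1 mM IBMX, 20 uM ODQ, 0.5% DMSO final. cGMP was measured by HTRF and interpolated from a standard curve. EC50 came from a 4-parameter sigmoidal fit.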

[2] = target: soluble guanylate cyclase (human GUCYA3 and GUCYB3) overexpressed in CHO cells (Homo sapiens (Human), UniProt Q02108+Q02153); assay: as above; format: cell-based; conditions: CHO GUCY clone 8E10, cGMP production, assay buffer with 1 mM IBMX and 20 uM ODQ, 1 h room temperature; minimum quantification limit 0.5 nM (listed 0.5 nM means ≤0.5 nM); read-out: EC50
Chain of soluble guanylate cyclase (human GUCYA3 and GUCYB3) overexpressed in CHO cells (Homo sapiens (Human), UniProt Q02108+Q02153) (Q02108 whole entry partner): as the sequence (Q02108 whole entry partner) above
Chain of soluble guanylate cyclase (human GUCYA3 and GUCYB3) overexpressed in CHO cells (Homo sapiens (Human), UniProt Q02108+Q02153) (Q02153 whole entry): as the sequence (Q02153 whole entry) above
In short: as §1

Compound | EC50 [1] [nM] | EC50 [2] [nM]
O=C(O)c1cnn(-c2cccc(-c3cccc4c3C(Oc3ccc5c(c3)CCN(Cc3ccccn3)C5)CC4)n2)c1C(F)(F)F (single isomer, unassigned; (-)) [Example 4b, (−)-1-(6-(3-((2-(Pyridin-2-ylmethyl)-1,2,3,4-tetrahydroisoquinolin-6-yl)oxy)-2,3-dihydro-1H-inden-4-yl)pyridin-2-yl)-6-(trifluoromethyl)-1H-pyrazole-4-carboxylic Acid] | 116 | 
CCc1cc(CN2CC(C)c3cccc(-c4cccc(-n5ncc(C(=O)O)c5CC)n4)c32)ccc1C1CCN(C(=O)C2CC2)CC1 (single isomer, unassigned; (-)) [(−)-20-1, (−)-1-(6-(1-(4-(1-(Cyclopropanecarbonyl)piperidin-4-yl)-3-ethylbenzyl)-3-methylindolin-7-yl)pyridin-2-yl)-5-ethyl-1H-pyrazole-4-carboxylic acid] | ≤ 0.5 | 
Cc1cc(C2CCN(C(=O)C3CC3)CC2)ccc1OC1CCc2cccc(-c3cccc(-n4ncc(C(=O)O)c4C(F)(F)F)n3)c21 (single isomer, unassigned; (-)) [Example 3b] | 6.9 | 
O=C(O)c1cnn(-c2cccc(-c3cccc4c3C(Oc3ccc(C5CCN(C(=O)C6CC6)CC5)cc3C(F)(F)F)CC4)n2)c1C(F)(F)F (single isomer, unassigned; enantiomer-2) [61. b). (enantiomer-2), (−)- or (+)-1-(6-(3-(4-(1-(cyclopropanecarbonyl)piperidin-4-yl)-2-(trifluoromethyl)phenoxy)-2,3-dihydro-1H-inden-4-yl)pyridin-2-yl)-5-(trifluoromethyl)-1H-pyrazole-4-carboxylic acid] | 2 | 
CCc1cc(CC2CCc3cccc(-c4cccc(-n5ncc(C(=O)O)c5CC)n4)c32)ccc1C1CCN(C(=O)C2CC2)CC1 (single isomer, unassigned; (+)) [38-1 (+), (+)-1-(6-(3-(4-(1-(cyclopropanecarbonyl)piperidin-4-yl)-3-ethylbenzyl)-2,3-dihydro-1H-inden-4-yl)pyridin-2-yl)-5-ethyl-1H-pyrazole-4-carboxylic acid] |  | ≤ 0.5
CCc1cc(CN2CCc3cccc(-c4cccc(-n5ncc(C(=O)O)c5C(F)(F)F)n4)c32)ccc1C1CCN(C(=O)C2CC2)CC1 [Example 13] |  | ≤ 0.5
CCc1cc(NC2COc3cccc(-c4cccc(-n5ncc(C(=O)O)c5CC)n4)c32)ccc1C1CCN(C(=O)C2CC2)CC1 (single isomer, unassigned; (-)) [(−)-36-2, (−)-1-(6-(3-((4-(1-(Cyclopropanecarbonyl)piperidin-4-yl)-3-ethylphenyl)amino)-2,3-dihydrobenzofuran-4-yl)pyridin-2-yl)-5-ethyl-1H-pyrazole-4-carboxylic acid] |  | 1
CCc1c(C(=O)O)cnn1-c1cccc(-c2cccc3c2C(Cc2ccc(C4CCN(C(=O)C5CC5)CC4)cc2C)CC3)n1 (single isomer, unassigned; (+)) [38-3 (+), (+)-1-(6-(3-(4-(1-(cyclopropanecarbonyl)piperidin-4-yl)-2-methylbenzyl)-2,3-dihydro-1H-inden-4-yl)pyridin-2-yl)-5-ethyl-1H-pyrazole-4-carboxylic acid] |  | ≤ 0.5
Cc1cc(C2CCN(C(=O)CO)CC2)ccc1NC1CCc2cccc(-c3cccc(-n4ncc(C(=O)O)c4C(F)(F)F)c3)c21 (single isomer, unassigned; (+)) [Example 56] |  | 1
Cc1cc(C2CCN(C(=O)C3CC3)CC2)ccc1O[C@H]1CCc2cccc(-c3cccc(-n4ncc(C(=O)O)c4C)c3)c21 [Example 2, (+)-(S)-1-(3-(3-(4-(1-(Cyclopropanecarbonyl)piperidin-4-yl)-2-methylphenoxy)-2,3-dihydro-1H-inden-4-yl)phenyl)-6-methyl-1H-pyrazole-4-carboxylic Acid] |  | 1
CCOC(=O)N1CCC(c2ccc(O[C@H]3CCc4cccc(-c5cccc(-n6ncc(C(=O)O)c6CC)n5)c43)cc2CC)CC1 [Example 29, (S)-1-(6-(3-(4-(1-(Ethoxycarbonyl)piperidin-4-yl)-3-ethylphenoxy)-2,3-dihydro-1H-inden-4-yl)pyridin-2-yl)-5-ethyl-1H-pyrazole-4-carboxylic Acid] |  | 1
CCc1cc(NC2CCc3cccc(-c4cccc(-n5ncc(C(=O)O)c5CC)n4)c32)ccc1C1CCN(C(=O)C2CC2)CC1 (single isomer, unassigned; (+)) [(+)-53-1, (+)-1-(6-(3-((4-(1-(cyclopropanecarbonyl)piperidin-4-yl)-3-ethylphenyl)amino)-2,3-dihydro-1H-inden-4-yl)pyridin-2-yl)-5-ethyl-1H-pyrazole-4-carboxylic acid] |  | ≤ 0.5
Cc1cc(C2CCN(C(=O)C3CC3)CC2)ccc1NC1CCc2cccc(-c3cccc(-n4ncc(C(=O)O)c4CC(F)(F)F)n3)c21 (single isomer, unassigned; (+)) [Example 57, (+)-1-(6-(3-((4-(1-(Cyclopropanecarbonyl)piperidin-4-yl)-2-methylphenyl)amino)-2,3-dihydro-1H-inden-4-yl)pyridin-2-yl)-6-(2,2,2-trifluoroethyl)-1H-pyrazole-4-carboxylic Acid] |  | 1
Cc1cc2c(c(-c3cccc(-n4ncc(C(=O)O)c4C(F)(F)F)n3)c1)C(Nc1ccc(C3CCN(C(=O)C4CC4)CC3)cc1C)CC2 (single isomer, unassigned; (-)) [43 (−), (−)-1-(6-(3-((4-(1-(Cyclopropanecarbonyl)piperidin-4-yl)-2-methylphenyl)amino)-6-methyl-2,3-dihydro-1H-inden-4-yl)pyridin-2-yl)-5-(trifluoromethyl)-1H-pyrazole-4-carboxylic acid] |  | 23
O=C(O)c1cnn(-c2cccc(-c3cccc4c3N(Cc3ccc5c(c3)CCN(Cc3ccccn3)C5)CC4)n2)c1C(F)(F)F [Example 25, 1-(6-(1-((2-(Pyridin-2-ylmethyl)-1,2,3,4-tetrahydroisoquinolin-6-yl)methyl)indolin-7-yl)pyridin-2-yl)-5-(trifluromethyl)-1H-pyrazole-4-carboxylic Acid] |  | 2.4
Cc1cc(C2CCN(C3CC3)CC2)ccc1CN1CCc2cccc(-c3cccc(-n4ncc(C(=O)O)c4C)n3)c21 [Example 24, 1-(6-(1-(4-(1-Cyclopropylpiperidin-4-yl)-2-methylbenzyl)indolin-7-yl)pyridin-2-yl)-5-methyl-1H-pyrazole-4-carboxylic Acid] |  | 7.9
Cc1cc(C2CCN(C(=O)C3CC3)CC2)ccc1CC1CCc2cccc(-c3cccc(-n4ncc(C(=O)O)c4C)c3)c21 (single isomer, unassigned; (-)) [54. b). (−), (−)-1-(3-(3-(4-(1-(cyclopropanecarbonyl)piperidin-4-yl)-2-methylbenzyl)-2,3-dihydro-1H-inden-4-yl)phenyl)-5-methyl-1H-pyrazole-4-carboxylic acid] |  | 168

The next lines start with the values.

EC50 [1] [nM] | EC50 [2] [nM] | Compound
≤ 0.5 |  | CCc1cc(CN2CC(C)c3cccc(-c4cccc(-n5ncc(C(=O)O)c5CC)n4)c32)ccc1C1CCN(C(=O)[C@H](C)O)CC1 (single isomer, unassigned) [Example 17b]
3 |  | (−)-Ethyl-1-(6-(3-((3-ethyl-4-(1-(isopropoxycarbonyl)piperidin-4-yl)phenyl)amino)-2,3-dihydro-1H-inden-4-yl)pyridin-2-yl)-1H-pyrazole-4-carboxylic Acid [Example 51b]
≤ 0.5 |  | CCc1cc(O[C@H]2CCc3cccc(-c4cccc(-n5ncc(C(=O)O)c5CC)n4)c32)ccc1C1CCN(C(=O)C(C)CCO)CC1 (single isomer, unassigned) [Example 32b]
20 |  | CCC[C@H](O)C(=O)N1CCC(c2ccc(NC3CCc4cccc(-c5cccc(-n6ncc(C(=O)O)c6CC)n5)c43)cc2CC)CC1 (single isomer, unassigned; (-)) [Example 49b]
11 |  | CCc1cc(NC2CCc3cccc(-c4cccc(-n5ncc(C(=O)O)c5CC)n4)c32)ccc1C1CCN(C(=O)[C@H](C)O)CC1 (single isomer, unassigned; (-)) [Example 48b]
≤ 0.5 |  | Cc1cc(C2CCN(C(=O)C3CC3)CC2)ccc1CN1CCc2cccc(-c3cccc(-n4ncc(C(=O)O)c4C)n3)c21 [Example 21-1, 1-(6-(1-(4-(1-(Cyclopropanecarbonyl)piperidin-4-yl)-2-methylbenzyl)indolin-7-yl)pyridin-2-yl)-5-methyl-1H-pyrazole-4-carboxylic acid]
 | 1 | O=C(O)c1cnn(-c2cccc(-c3cccc4c3C(Nc3ccc(C5CCN(C(=O)C6CC6)CC5)cc3)CC4)n2)c1C(F)(F)F (stereo not shown) [Example 11-2]
 | ≤ 0.5 | CCc1c(C(=O)O)cnn1-c1cccc(-c2cccc3c2C(Nc2ccc(C4CCN(C(=O)C5CC5)CC4)cc2C)CC3)n1 (single isomer, unassigned; (+)) [Example 10a]
 | 2.4 | Cc1cc(C2CCN(C(=O)C3CC3)CC2)ccc1O[C@H]1CCc2cccc(-c3cccc(-n4cc(C(=O)O)cn4)n3)c21 [Example 5-5]
 | ≤ 0.5 | CCC[C@H](O)C(=O)N1CCC(c2ccc(NC3CCc4cccc(-c5cccc(-n6ncc(C(=O)O)c6CC)n5)c43)cc2CC)CC1 (single isomer, unassigned; (+)) [Example 49a]
 | ≤ 0.5 | Cc1cc(C2CCN(C(=O)C3CC3)CC2)ccc1NC1CCc2cccc(-c3cccc(-n4ncc(C(=O)O)c4C(F)F)c3)c21 (single isomer, unassigned; (+)) [Example 55-2, (+)-1-(3-(3-((4-(1-(Cyclopropanecarbonyl)piperidin-4-yl)-2-methylphenyl)amino)-2,3-dihydro-1H-inden-4-yl)phenyl)-5-(difluoromethyl)-1H-pyrazole-4-carboxylic acid]
